Measured values taken from patent US20120184542A1, “PYRIDO PYRIMIDINES” (priority 2011, published 2012).
Read-outs that look alike come from different tables or passages of the source.

What was measured:
[1] = target: T1, Human DYRK1B (Homo sapiens, UniProt Q9Y463); assay: DYRK1B Kinase TR-FRET (IMAP-Tb) Assay; assay type: biochemical; settings: for IC50: TR-FRET (IMAP-Tb), ATP 70 μM, 37° C. 60 minutes
T1 construct: purchased Invitrogen PR8350B (former PV4649)

[2] = system: SW620 human colon cancer cells; assay: SW620 Cell Viability Assay; assay type: cell-based; settings: Homo sapiens, SW-620, 96 h, read-out: Cellular EC50 (μM) SW620
Description: Some cells (S—) were allowed to attach for 24 hrs, serum starved for 48 hrs, and then followed with drug treatments Test Compound Solutions were Prepared in Regular Corresponding Media Supplemented with Serum 2. […] Viability Assay: This assay was performed as follows: • Transfer 50 μL of test compound solution per well from the test compound plate onto the cell plate prepared in Step #1. • Mix the plate with treated cells by pipetting up and down three times with 200 μL multi-channel pipette. • Incubate the cells in 5% CO2 incubator @ 37° C. for 4 days. • Run the CellTiter-Glo™ Luminescent Cell Viability Assay.

[3] = target: T2, Human DYRK1A (Homo sapiens, UniProt Q13627); assay: DYRK1A Kinase TR-FRET (IMAP-Tb) Assay; assay type: biochemical; settings: TR-FRET (IMAP-Tb); ATP 70 μM; 37° C. 60 minutes; read-out: Enzyme IC50 (μM) DYRK1A
T2 construct: purchased Invitrogen PV3997
Source text: The kinase TR-FRET (IMAP-Tb) assay uses a fluorescence labeled substrate peptide in the kinase reaction. Upon phosphorylation by the kinase, phosphopeptide is produced, which will be detected by the binding solution provided in IMAP TR-FRET binding kit. After the completion of the kinase reaction, the reaction will be stopped by adding the binding solution containing terbium tracer. This tracer is immobilized on the surface of the IMAP beads, which also contain metal ions on the beads that bind to the phospho-groups of the products. Thus the phosphorylated product of the reaction can enter into close proximity to the tracer, producing resonance energy transfer. Due to the long lifetime of terbium (Tb) fluorescence the detection can be run in time resolved mode, which virtually eliminates fluorescence interference from assay components or compounds.
The TR-FRET signal measurement from this assay, given as an IC50 measurement, is a measure of a test compound's ability to interfere with the phosphorylation of the peptide substrate, that is it inhibits the phosphorylation of the substrate peptide by DYRK1A, and is thus a measure of the test compound's ability to inhibit the activity of DYRK1A.
• 1. Human DYRK1A: from Invitrogen. Part #PV3997 • 2. Substrate Peptide: […] • 3. IMAP TR-FRET IPP Explorer Kit: from Molecular Devices. Part #R8157 • 4. Kinase Assay Buffer (KAB): 10 mM HEPES pH 7.0, 50 mM NaCl, 5 mM MgCl2, 1 mM DTT, 1 mM NaVO4, 200 μg/mL BSA (0.02%) • 5. Assay Plate: Remp polypropylene clear 384-well microplate. […] Detection Plate: Costa black 384-well microplate.
• 1. Transfer 1.5 μL of 20× compound solution to each well of an assay plate. • 2. Add to each well 22.5 μL of KAB Buffer. • 3. Add to each well 3 μL of the solution of DYRK1A and ATP. […] Add to each well 3 μL of the substrate peptide. The assay concentration is 1.0 μM • 5. Incubate the assay plates at 37° C. for 60 minutes. • 6. Add 18 μL of Detection Solution (1:800 diluted Progress bead stock, 1:400 diluted Tb stock, 80% Buffer A, and 20% Buffer B) into each well of detection plates. • 7. Transfer 6 μL of assay solution from the assay plate to the detection plate. • 8. Shake detection plates for 30 minutes. • 9. Read plates in Envision with wavelength set at excitation 340 nm for Tb, emission 490 nm, and […].

[4] = read-out: Enzyme IC50 (μM) DYRK1B

T1 sequence (Q9Y463 whole entry): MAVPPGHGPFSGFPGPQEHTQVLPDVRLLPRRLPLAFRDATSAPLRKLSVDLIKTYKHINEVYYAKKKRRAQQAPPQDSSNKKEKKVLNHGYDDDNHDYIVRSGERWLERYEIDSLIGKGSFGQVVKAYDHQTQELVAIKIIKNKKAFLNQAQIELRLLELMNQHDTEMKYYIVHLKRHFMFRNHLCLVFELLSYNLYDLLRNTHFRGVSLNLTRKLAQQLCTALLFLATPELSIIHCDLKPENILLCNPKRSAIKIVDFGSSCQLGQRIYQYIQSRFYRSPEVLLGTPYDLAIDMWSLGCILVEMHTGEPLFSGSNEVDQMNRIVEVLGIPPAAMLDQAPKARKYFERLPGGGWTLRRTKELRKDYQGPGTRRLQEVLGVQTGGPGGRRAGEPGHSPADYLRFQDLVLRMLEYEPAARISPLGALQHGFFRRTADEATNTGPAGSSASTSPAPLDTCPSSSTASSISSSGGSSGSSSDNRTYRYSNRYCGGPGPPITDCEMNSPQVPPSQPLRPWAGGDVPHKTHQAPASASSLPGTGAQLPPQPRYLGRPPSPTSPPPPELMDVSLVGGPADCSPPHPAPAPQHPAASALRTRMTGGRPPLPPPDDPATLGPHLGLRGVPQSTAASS

SMILES | IC50 ([1]; Enzyme IC50 (μM) DYRK1B) [µM] | EC50 [2] [µM] | IC50 [1, 4] [µM] | IC50 [3] [µM] | inhibition at 10 µM ([1]; read-out: % inhibition of DYRK1B at 10 μM test compound concentration) [%]
COC(=O)c1ccc(C)c(NC(=O)c2cc3cnc(OC)nc3[nH]c2=O)c1 [Example 19, 3-[(2-Methoxy-7-oxo-7,8-dihydro-pyrido[2,3-d]pyrimidine-6-carbonyl)-amino]-4-methyl-benzoic acid methyl ester] | 0.252 | 92.5 |  |  | 
COC(=O)c1ccc(Cl)c(NC(=O)c2cc3cnc(OC)nc3[nH]c2=O)c1 [Example 21, 4-Chloro-3-[(2-methoxy-7-oxo-7,8-dihydro-pyrido[2,3-d]pyrimidine-6-carbonyl)-amino]-benzoic acid methyl ester] | 0.135 | 3.34 |  |  | 
COc1ncc2cc(C(=O)Nc3cc(C(=O)NCc4ccccc4)ccc3Cl)c(=O)[nH]c2n1 [Example 31, 2-Methoxy-7-oxo-7,8-dihydro-pyrido[2,3-d]pyrimidine-6-carboxylic acid (5-benzylcarbamoyl-2-chloro-phenyl)-amide] | 0.048 | > 100 |  |  | 
COc1ncc2cc(C(=O)Nc3cc(C(=O)NCc4cccs4)ccc3Cl)c(=O)[nH]c2n1 [Example 57, 2-Methoxy-7-oxo-7,8-dihydro-pyrido[2,3-d]pyrimidine-6-carboxylic acid {2-chloro-5-[(thiophen-2-ylmethyl)-carbamoyl]-phenyl}-amide] | 0.096 | 2.41 |  |  | 
COc1ncc2cc(C(=O)Nc3cc(C(=O)NCc4ccsc4)ccc3Cl)c(=O)[nH]c2n1 [Example 58, 2-Methoxy-7-oxo-7,8-dihydro-pyrido[2,3-d]pyrimidine-6-carboxylic acid {2-chloro-5-[(thiophen-3-ylmethyl)-carbamoyl]-phenyl}-amide] | 0.04 | 1.73 |  |  | 
COc1ncc2cc(C(=O)Nc3cc(C(=O)NC(CN)c4ccccc4)ccc3Cl)c(=O)[nH]c2n1 (stereo not shown) [Example 72, 2-Methoxy-7-oxo-7,8-dihydro-pyrido[2,3-d]pyrimidine-6-carboxylic acid [5-(2-amino-1-phenyl-ethylcarbamoyl)-2-chloro-phenyl]-amide] |  | 0.828 | 0.00935 |  | 
CC(C)(O)CNc1ncc2cc(C(=O)Nc3cc(C(=O)NC(CO)c4ccccc4)ccc3Cl)c(=O)[nH]c2n1 (stereo not shown) [Example 153, N-(2-Chloro-5-(2-hydroxy-1-phenylethylcarbamoyl)phenyl)-2-(2-hydroxy-2-methylpropylamino)-7-oxo-7,8-dihydropyrido[2,3-d]pyrimidine-6-carboxamide] |  |  | 0.185 | 0.0931 | 
CC(C)(O)CNc1ncc2cc(C(=O)Nc3cc(C(=O)NC(CCO)c4ccccc4)ccc3Cl)c(=O)[nH]c2n1 (stereo not shown) [Example 154, N-(2-Chloro-5-(3-hydroxy-1-phenylpropylcarbamoyl)phenyl)-2-(2-hydroxy-2-methylpropylamino)-7-oxo-7,8-dihydropyrido[2,3-d]pyrimidine-6-carboxamide] |  |  | 0.078 | 0.075 | 
CN(C)c1ncc2cc(C(=O)Nc3cc(C(=O)NCc4cccc(Cl)c4)ccc3Cl)c(=O)[nH]c2n1 [Example 155, N-(2-Chloro-5-(3-chlorobenzylcarbamoyl)phenyl)-2-(dimethylamino)-7-oxo-7,8-dihydropyrido[2,3-d]pyrimidine-6-carboxamide] |  |  | 0.0923 | 0.0485 | 
C[C@@H](NC(=O)c1ccc(Cl)c(NC(=O)c2cc3cnc(N4CCOCC4)nc3[nH]c2=O)c1)c1ccccc1 [Example 156, 2-Morpholin-4-yl-7-oxo-7,8-dihydro-pyrido[2,3-d]pyrimidine-6-carboxylic acid [2-chloro-5-((R)-1-phenyl-ethylcarbamoyl)-phenyl]-amide] |  |  | 0.586 | 0.189 | 
C[C@H](NC(=O)c1ccc(Cl)c(NC(=O)c2cc3cnc(N4CCOCC4)nc3[nH]c2=O)c1)c1ccccc1 [Example 157, 2-Morpholin-4-yl-7-oxo-7,8-dihydro-pyrido[2,3-d]pyrimidine-6-carboxylic acid [2-chloro-5-((S)-1-phenyl-ethylcarbamoyl)-phenyl]-amide] |  |  | > 10 | > 10 | 
COc1ncc2cc(C(=O)Nc3cc(C(=O)N[C@@H](CCO)c4ccccc4)ccc3Cl)c(=O)[nH]c2n1 [Example 159, (S)—N-(2-Chloro-5-(3-hydroxy-1-phenylpropylcarbamoyl)phenyl)-2-methoxy-7-oxo-7,8-dihydropyrido[2,3-d]pyrimidine-6-carboxamide] |  |  |  | 3.88 | 22
C[C@H](NC(=O)c1ccc(Cl)c(NC(=O)c2cc3cnc(N4CCN(C)CC4)nc3[nH]c2=O)c1)c1ccccc1 [Example 173, 2-(4-Methyl-piperazin-1-yl)-7-oxo-7,8-dihydro-pyrido[2,3-d]pyrimidine-6-carboxylic acid [2-chloro-5-((S)-1-phenyl-ethylcarbamoyl)-phenyl]-amide] |  |  | > 10 | > 10 | 
CN1CCN(c2ncc3cc(C(=O)Nc4cc(C(=O)NCc5cccc(F)c5)ccc4Cl)c(=O)[nH]c3n2)CC1 [Example 177, 2-(4-Methyl-piperazin-1-yl)-7-oxo-7,8-dihydro-pyrido[2,3-d]pyrimidine-6-carboxylic acid [2-chloro-5-(3-fluoro-benzylcarbamoyl)-phenyl]amide] |  |  | 0.176 | 0.0715 | 
CN1CCN(c2ncc3cc(C(=O)Nc4cc(C(=O)NCc5cc(F)ccc5F)ccc4Cl)c(=O)[nH]c3n2)CC1 [Example 178, 2-(4-Methyl-piperazin-1-yl)-7-oxo-7,8-dihydro-pyrido[2,3-d]pyrimidine-6-carboxylic acid [2-chloro-5-(2,5-difluoro-benzylcarbamoyl)-phenyl]amide] |  |  | 0.356 | 0.0748 | 
CN1CCN(c2ncc3cc(C(=O)Nc4cc(C(=O)N[C@H](CN)Cc5cccc(F)c5)ccc4Cl)c(=O)[nH]c3n2)CC1 [Example 187, 2-(4-Methyl-piperazin-1-yl)-7-oxo-7,8-dihydro-pyrido[2,3-d]pyrimidine-6-carboxylic acid {5-[(S)-1-aminomethyl-2-(3-fluoro-phenyl)-ethylcarbamoyl]-2-chloro-phenyl}-amide] |  |  | 0.202 | 0.13 | 
COc1ncc2cc(C(=O)Nc3cc(C(=O)NC(CN)C4CCCCC4)ccc3Cl)c(=O)[nH]c2n1 (stereo not shown) [Example 192, N-(5-(2-Amino-1-cyclohexylethylcarbamoyl)-2-chlorophenyl)-2-methoxy-7-oxo-7,8-dihydropyrido[2,3-d]pyrimidine-6-carboxamide] |  |  | 0.047 | 0.036 | 
COc1ncc2cc(C(=O)Nc3cc(C(=O)NC(c4ccccc4)C(F)(F)CN)ccc3Cl)c(=O)[nH]c2n1 (stereo not shown) [Example 196, N-(5-(3-amino-2,2-difluoro-1-phenylpropylcarbamoyl)-2-chlorophenyl)-2-methoxy-7-oxo-7,8-dihydropyrido[2,3-d]pyrimidine-6-carboxamide] |  |  | 0.339 | 0.175 | 
COc1ncc2cc(C(=O)Nc3cc(C(=O)NC(CCN)C4CCCC4)ccc3Cl)c(=O)[nH]c2n1 (stereo not shown) [Example 198, 2-Methoxy-7-oxo-7,8-dihydro-pyrido[2,3-d]pyrimidine-6-carboxylic acid [5-(3-amino-1-cyclopentyl-propylcarbamoyl)-2-chloro-phenyl]-amide] |  |  | 0.36 | 0.47 | 
COc1ncc2cc(C(=O)Nc3cc(C(=O)NC(CN)C4CCCC4)ccc3Cl)c(=O)[nH]c2n1 (stereo not shown) [Example 200, 2-Methoxy-7-oxo-7,8-dihydro-pyrido[2,3-d]pyrimidine-6-carboxylic acid [5-(2-amino-1-cyclopentyl-ethylcarbamoyl)-2-chloro-phenyl]-amide] |  |  | 0.47 | 0.54 | 
